Literature values in patent US5596019A, “N-acyl-cycloalkylamine derivatives as melatonergics” (Bristol-Myers Squibb Company, priority 1995, dated 1997).

What was measured:
[1] = system: circadian rhythms; settings: exogenous melatonin, rats

## COc1ccc2[nH]cc(CCNC(C)=O)c2c1 [melatonin, N-acetyl-5-methoxytryptamine]
[1]
  synchronization of circadian rhythms: synchronize circadian rhythms in rats
other
  oral bioavailability: often low and variable
